# Results reported in PMC7893776, “Selecting an anti-malarial clinical candidate from two potent dihydroisoquinolones” (Malaria Journal, 2021).
# Several values for one entry are separate records, joined by “and”; a condition that tells them apart may be missing. Equal entries are not always repeated.
# How the values were obtained:
# Format in all cases: in vitro ADME
# CYP2C9 = target: T1, CYP2C9 (Homo sapiens, UniProt P11712); assay: CYP450 inhibition, CYP2C9; details: for inhibition of CYP2C9: 10 µM, probe substrate Diclofenac, replicate measurements
# T1 construct: purchased Cypex Ltd (Bactosomes)
# Description: SJ733 was first pre-incubated with Bactosomes™ (Cypex Ltd, final P450 concentration: CYP1A1 25 pmol/mL, CYP1A2 100 pmol/mL,CYP1B1 100 pmol/mL, CYP2B6 100 pmol/mL, CYP2C8 50 pmol/mL, CYP2C9, 25 pmol/mL, CYP2C19 100 pmol/mL, CYP2D6 50 pmol/mL and CYP3A4 25 pmol/mL, 0.1 M phosphate buffer pH 7.4) at 37 °C prior to the addition of NADPH (final concentration 1 mM) to initiate the reaction with a final incubation volume of 50 μL. Incubations were also performed using control Bactosomes™ (no P450 enzymes present) to reveal any non-enzymatic degradation. Control compounds known to be metabolized specifically by each P450 isoform were included individually. Test articles and controls were incubated with each isoform for 0, 5, 15, 30, and 45 min. The reactions were stopped by transferring 20 μL of the reaction mixture to 60 μL methanol at the appropriate timepoints.
# In an alternate approach SJ311 was studied using a validated cocktail probe substrate method. […] All samples were analyzed using LC MS/MS, with either positive atmospheric pressure chemical ionization (APCI) mode (SJ311) or ESI (SJ733) mode utilizing multiple reaction monitoring (MRM) scans.
# CYP2D6 = target: T2, CYP2D6 (Homo sapiens, UniProt P10635); assay: CYP450 inhibition, CYP2D6; details: for inhibition of CYP2D6: 10 µM, probe substrate Bufuralol, replicate measurements
# T2 construct: purchased Cypex Ltd (Bactosomes)
# CYP3A4 = target: T3, CYP3A4 (Homo sapiens, UniProt P08684); assay: CYP450 inhibition, CYP3A4
# T3 construct: purchased Cypex Ltd (Bactosomes)
# [1] = Microsomal stability, mouse; details: for CLint in vivo: scaled up using PBSF
# Description: (§1) The metabolic stability assay was performed by incubating compounds individually (0.8, 4, or 20 µM) with mouse, rat, dog and human liver microsomes (Fisher, 0.5 mg/mL protein concentration) at 37 °C. The metabolic reaction was initiated by the addition of a NADPH-regenerating system and quenched at various time points by the addition of acetonitrile according to a published method.
# (§2) The remaining concentration of each compound was measured as a ratio of peak area to the internal standard. The log peak area ratio was plotted vs. time (h), and the slope was determined to calculate the elimination rate constant [k = (− 2.303) * slope]. If deviation from first order kinetics was evident, only the initial linear portion of the plot was used to determine the rate constate, k. The half-life (h) was calculated as t1/2 = 0.693/k. Intrinsic clearance in vitro was calculated as CLintin vitro = (1000)*(0.693/t1/2*60)/0.5, where microsomal concentration in the reaction solution was 0.5 mg/mL; 1000 and 60 are scaling factors for volume (µL) and time (min), respectively. The intrinsic in vitro clearance was scaled to the intrinsic in vivo clearance using physiology based scaling factor (PBSF): CLint in vivo= CLint in vitro *PBSF: (microsome protein/gram liver) * (gram liver/kg b.w.), with PBSF: 47 (mouse), 47(rat), 58 (dog), 32 (human); and liver weight proportions: 54.9 (mouse), 36.6 (rat), 32.9 (dog) 25.7 (human).
# [2] = Microsomal stability, dog; details: for CLint in vivo: scaled up using PBSF
# Description: as §1, §2
# [3] = 10 µM, probe substrate Midazolam, replicate measurements
# [4] = mouse microsomes, 20, 4, 0.8 µM
# [5] = mouse microsomes, 0.8 µM, independent replicate to Table 4
# [6] = mouse microsomes, 4 µM, independent replicate to Table 4
# [7] = mouse microsomes, 20 µM, independent replicate to Table 4
# [8] = dog microsomes, 0.8 µM, independent replicate to Table 4
# [9] = dog microsomes, 4 µM, independent replicate to Table 4
# [10] = dog microsomes, 20 µM, independent replicate to Table 4
# T1 sequence (P11712 whole entry): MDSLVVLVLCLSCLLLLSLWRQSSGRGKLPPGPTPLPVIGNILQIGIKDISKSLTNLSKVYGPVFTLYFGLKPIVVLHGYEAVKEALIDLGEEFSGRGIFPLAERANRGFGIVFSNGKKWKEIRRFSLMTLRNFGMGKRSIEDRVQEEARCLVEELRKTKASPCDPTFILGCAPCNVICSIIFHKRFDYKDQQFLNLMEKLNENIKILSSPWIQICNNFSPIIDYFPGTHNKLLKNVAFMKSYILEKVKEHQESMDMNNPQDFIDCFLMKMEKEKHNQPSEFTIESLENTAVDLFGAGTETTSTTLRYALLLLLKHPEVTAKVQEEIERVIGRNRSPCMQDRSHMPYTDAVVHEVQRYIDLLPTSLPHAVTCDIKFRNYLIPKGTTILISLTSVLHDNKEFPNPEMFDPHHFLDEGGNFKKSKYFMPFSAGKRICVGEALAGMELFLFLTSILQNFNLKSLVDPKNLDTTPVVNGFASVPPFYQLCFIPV
# T2 sequence (P10635 whole entry): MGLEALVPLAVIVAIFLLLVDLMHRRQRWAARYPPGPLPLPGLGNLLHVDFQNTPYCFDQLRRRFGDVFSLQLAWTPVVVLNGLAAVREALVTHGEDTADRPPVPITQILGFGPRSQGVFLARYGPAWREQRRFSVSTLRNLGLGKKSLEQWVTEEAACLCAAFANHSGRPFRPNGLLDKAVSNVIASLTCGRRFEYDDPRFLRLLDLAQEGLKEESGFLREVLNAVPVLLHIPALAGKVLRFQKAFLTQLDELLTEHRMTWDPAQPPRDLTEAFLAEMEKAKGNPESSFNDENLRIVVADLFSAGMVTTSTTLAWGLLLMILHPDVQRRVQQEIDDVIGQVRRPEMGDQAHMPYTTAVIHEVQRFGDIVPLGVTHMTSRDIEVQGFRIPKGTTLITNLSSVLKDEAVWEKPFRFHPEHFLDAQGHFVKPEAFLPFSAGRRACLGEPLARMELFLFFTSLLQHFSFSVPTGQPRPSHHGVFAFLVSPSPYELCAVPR
# T3 sequence (P08684 whole entry): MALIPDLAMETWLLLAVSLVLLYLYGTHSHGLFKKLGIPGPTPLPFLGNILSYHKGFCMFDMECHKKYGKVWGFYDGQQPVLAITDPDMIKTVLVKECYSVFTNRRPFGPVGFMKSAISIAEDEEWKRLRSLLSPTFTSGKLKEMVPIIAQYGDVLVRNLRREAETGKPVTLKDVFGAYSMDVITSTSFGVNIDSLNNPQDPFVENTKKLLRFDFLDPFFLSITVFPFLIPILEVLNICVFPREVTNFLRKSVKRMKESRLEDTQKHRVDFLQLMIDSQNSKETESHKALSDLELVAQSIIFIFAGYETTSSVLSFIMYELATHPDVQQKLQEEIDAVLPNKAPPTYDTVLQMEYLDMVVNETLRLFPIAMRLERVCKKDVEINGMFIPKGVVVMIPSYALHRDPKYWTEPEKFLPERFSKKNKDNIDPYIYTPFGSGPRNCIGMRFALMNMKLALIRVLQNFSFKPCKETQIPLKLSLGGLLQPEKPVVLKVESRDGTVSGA
Compound,"CYP2C9 inhibition, in words (CYP2C9)","CYP2D6 inhibition, in words (CYP2D6)","CYP3A4 inhibition, in words (CYP3A4)","CLint ([1]; mouse microsomes, 0.8 µM)","t1/2 ([1]; mouse microsomes, 0.8 µM)",inhibition of CYP2C9 (CYP2C9),inhibition of CYP2D6 (CYP2D6),inhibition of CYP3A4 (CYP3A4; [3]),"CLint in vitro [1, 5]","CLint in vivo ([1]; mouse microsomes, 0.8 µM)","CLint in vitro [1, 6]","CLint in vivo ([1]; mouse microsomes, 4 µM)","CLint in vitro [1, 7]","CLint in vivo ([1]; mouse microsomes, 20 µM)","CLint in vitro [2, 8]","CLint in vivo ([2]; dog microsomes, 0.8 µM)","CLint in vitro [2, 9]","CLint in vivo ([2]; dog microsomes, 4 µM)","CLint in vitro [2, 10]","CLint in vivo ([2]; dog microsomes, 20 µM)",also measured
N#Cc1cc(NC(=O)C2c3ccccc3C(=O)N(CC(F)(F)F)C2c2cn[nH]c2)ccc1F (racemic) [(r)-SJ311],,,,,,19% and 15%,11%,54% and 52%,,,,,,,,,,,,,"CLint in vitro [1, 4]: <7 µl/min/mg protein; CLint in vivo [1, 4]: < 13.5 mL/min/kg; CLint in vitro ([2]; dog microsomes, 20, 4, 0.8 µM): <7 µl/min/mg protein; CLint in vivo ([2]; dog microsomes, 20, 4, 0.8 µM): <8.3 mL/min/kg"
N#Cc1cc(NC(=O)C2c3ccccc3C(=O)N(CC(F)(F)F)C2c2cccnc2)ccc1F (racemic) [(r)-SJ733],,,,,,34% and 17%,7% and 9%,42% and 33%,9.1 ± 0.5 µl/min/mg protein,21.4 ± 1.3 mL/min/kg,10 ± 0.5 µl/min/mg protein,23.4 ± 1.1 mL/min/kg,<7 µl/min/mg protein,< 13.5 mL/min/kg,<7 µl/min/mg protein,<8.3 mL/min/kg,<7 µl/min/mg protein,<8.3 mL/min/kg,<7 µl/min/mg protein,<8.3 mL/min/kg,
N#Cc1cc(NC(=O)[C@H]2c3ccccc3C(=O)N(CC(F)(F)F)[C@@H]2c2cccnc2)ccc1F [(+)-SJ733],,,,35.4 ± 2.1 µl/min/mg protein,0.7 ± 0.1 h,,,,33.9 ± 1.3 µl/min/mg protein,79.3 ± 3.0 mL/min/kg,27.2 ± 1.3 µl/min/mg protein,63.8 ± 2.9 mL/min/kg,15.9 ± 2.2 µl/min/mg protein,37.3 ± 5.3 mL/min/kg,<7 µl/min/mg protein,<8.3 mL/min/kg,<7 µl/min/mg protein,<8.3 mL/min/kg,<7 µl/min/mg protein,<8.3 mL/min/kg,"CLint ([2]; dog microsomes, 0.8 µM): < 7 µl/min/mg protein; t1/2 ([2]; dog microsomes, 0.8 µM): > 4 h"

# Continued, in another order:
"CYP2C9 inhibition, in words (CYP2C9)","CYP2D6 inhibition, in words (CYP2D6)","CYP3A4 inhibition, in words (CYP3A4)","CLint ([1]; mouse microsomes, 0.8 µM)","t1/2 ([1]; mouse microsomes, 0.8 µM)",Compound,inhibition of CYP2C9 (CYP2C9),inhibition of CYP2D6 (CYP2D6),inhibition of CYP3A4 (CYP3A4; [3]),"CLint in vitro [1, 5]","CLint in vivo ([1]; mouse microsomes, 0.8 µM)","CLint in vitro [1, 6]","CLint in vivo ([1]; mouse microsomes, 4 µM)","CLint in vitro [1, 7]","CLint in vivo ([1]; mouse microsomes, 20 µM)","CLint in vitro [2, 8]","CLint in vivo ([2]; dog microsomes, 0.8 µM)","CLint in vitro [2, 9]","CLint in vivo ([2]; dog microsomes, 4 µM)","CLint in vitro [2, 10]","CLint in vivo ([2]; dog microsomes, 20 µM)",also measured
weak inhibitors,weak inhibitors,moderate inhibitors,,,N#Cc1cc(NC(=O)[C@H]2c3ccccc3C(=O)N(CC(F)(F)F)[C@@H]2c2cccnc2)ccc1F (racemic) [SJ733],,,,,,,,,,,,,,,,
,,,< 7 µl/min/mg protein,> 4 h,N#Cc1cc(NC(=O)[C@H]2c3ccccc3C(=O)N(CC(F)(F)F)[C@@H]2c2cn[nH]c2)ccc1F [(+)-SJ311],,,,,,,,,,,,,,,,"CLint ([2]; dog microsomes, 0.8 µM): < 7 µl/min/mg protein; t1/2 ([2]; dog microsomes, 0.8 µM): > 4 h"
weak inhibitors,weak inhibitors,moderate inhibitors,,,N#Cc1cc(NC(=O)[C@H]2c3ccccc3C(=O)N(CC(F)(F)F)[C@@H]2c2cn[nH]c2)ccc1F [SJ311],,,,,,,,,,,,,,,,"inhibition at 10 µM (CYP3A4; human, pH 7.4, 10 µM, probe substrate Midazolam, replicate measurements): 53%"
